Assay [1] concerns Rett syndrome. Briefly: Example 2 cardiac pulse rate in Rett syndrome patient. It is filed as in vivo, human. As to conditions: person, oral 20 mg daily for 5 days. The source says: A person presents with Rett syndrome. Their real time cardiac pulse rate is monitored. Prior to commencing therapy, their heart rate is 49 beats per minute with substantial variability.
The target in another assay is sigma-1 receptors (Homo sapiens, UniProt Q99720). As to conditions: believed to bind; cited from earlier work.
Sequence of sigma-1 receptors (Q99720 whole entry): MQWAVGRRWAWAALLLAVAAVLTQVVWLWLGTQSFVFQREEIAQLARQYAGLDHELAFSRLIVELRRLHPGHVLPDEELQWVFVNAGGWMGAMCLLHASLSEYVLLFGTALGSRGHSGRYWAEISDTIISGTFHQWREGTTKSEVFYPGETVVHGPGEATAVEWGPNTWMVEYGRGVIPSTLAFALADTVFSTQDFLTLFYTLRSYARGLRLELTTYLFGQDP
Assay [2] relates to heterozygous MECP2knockout mice (HET). The experiment in a line: Rotarod. It is filed as in vivo. As to the method: Studies employed wild type (WT) mice and heterozygous MECP2knockout mice (HET) All mice were provided by Jackson Laboratory, Bar Harbor, Maine. HET mice were Bird mice (Jackson Laboratories, Bar Harbor, ME, B6.129P2(C)-Mecp2^tm1.1Bird/Stock Number: 003890) were obtained by crossing het females with wild type (WT) males (C57B/6J). […] Mecp2 females testing at ˜8 and ˜12 weeks of age WT—vehicle (0.25% MC/dH2O) HET—vehicle (0.25% MC/dH2O) HET—A2-733 (10 mg/kg) HET—A2-733 (30 mg/kg) Chronic dosing (p.o.) daily, starting at ˜5.5 weeks of age and continuing through the 12-week behavioral testing time point 60 min pre-treatment during behavioral testing. The rotarod performance test is a performance test based on a rotating rod with forced motor activity being applied, usually by a rodent. The test measures parameters such as riding time (seconds) or endurance. Some of the functions of the test include evaluating balance, grip strength, and motor coordination of the subjects; especially in testing the effect of experimental drugs or after traumatic brain injury. Mice are placed on the rotarod apparatus (PsychoGenics, Tarrytown New York) consisting of a rod that rotates at a constant or variable and accelerating speed of 4 rpm. Once a mouse loses its balance and falls onto an underlying platform the timer automatically stops. Mice are exposed to the apparatus for 5 min training at a constant speed and placed back on the rod after each fall. After a rest period of at least 1 hr. animals are placed back on the rotarod apparatus for testing. Once all animals in a test session are loaded on the rod, the rotarod apparatus is placed on accelerating speed (0-40 rpm) over 5 min and the time until the first fall is recorded. The test is repeated three consecutive times per animal. For each test session, the RPM score at time of fall off the rod are recorded.

Assay [3] deals with Rett syndrome. Briefly: Example 1 breathing variability in Rett syndrome patient. It is filed as in vivo, human. Conditions: person, oral 4 mg daily for 10 days. As to the method:
A person presenting with Rett syndrome is administered oral doses of A2-73 at 4 mg daily for 10 days. On presentation, their breathing is abnormal. Their mean breaths per minute is calculated to assess breathing variability.

Assay [4] has as its system Rett syndrome. The experiment in a line: Example 3 seizure reduction in Rett syndrome patient. Type of assay: in vivo, human. Conditions: oral 2 mg daily, after 5 days, 6 to 10 seizures per day before therapy. As to the method: A person presents with Rett syndrome. They experience 6 to 10 seizures per day prior to commencing therapy. They begin treatment with oral doses of A2-73 at 2 mg daily. After 5 days of treatment, the number of daily seizures is reduced to 3 or fewer.

The subject of assay [5] is muscarinic acetylcholine receptors. As to conditions: believed to bind; cited from earlier work.
For another assay, the system named is multiple sclerosis. Briefly: Example 8 gadolinium-enhanced MRI lesions in multiple sclerosis patient. Type of assay: in vivo, human. As to conditions: person, oral 40 mg every fifth day, weeks 12, 16, 20 and 24 vs 12 week pretreatment MRI. As to the method: A person presents with multiple sclerosis. They begin treatment with oral doses of A2-73 at 40 mg every fifth day.

The test system of assay [6] is heterozygous MECP2knockout mice (HET). Briefly: Clasping of hind legs. As to conditions: 8 weeks of age; 30 mg/kg p.o. daily. Type of assay: in vivo. As to the method:
Studies employed wild type (WT) mice and heterozygous MECP2knockout mice (HET) All mice were provided by Jackson Laboratory, Bar Harbor, Maine. HET mice were Bird mice (Jackson Laboratories, Bar Harbor, ME, B6.129P2(C)-Mecp2^tm1.1Bird/Stock Number: 003890) were obtained by crossing het females with wild type (WT) males (C57B/6J). […] Mecp2 females testing at ˜8 and ˜12 weeks of age WT—vehicle (0.25% MC/dH2O) HET—vehicle (0.25% MC/dH2O) HET—A2-733 (10 mg/kg) HET—A2-733 (30 mg/kg) Chronic dosing (p.o.) daily, starting at ˜5.5 weeks of age and continuing through the 12-week behavioral testing time point 60 min pre-treatment during behavioral testing. Mice are lifted gently by the tail with front limbs remaining on surface. Clasping of hind legs is noted (normal is a spread in the hind legs).

Assay [7] has as its system amyloid β25-35 peptide (Aβ25-35) injected mice. As to conditions: cited from earlier work.
Assay [8] concerns Rett syndrome. Briefly: Example 4 eating and choking in Rett syndrome patient. Conditions: person, oral 40 mg every other day, after 60 days. It is filed as in vivo, human. As to the method:
A person presents with Rett syndrome. […] They begin treatment with oral doses of A2-73 at 40 mg every other day.

The subject of the next assay is Williams syndrome. The experiment in a line: Example 6 weight gain in Williams syndrome patient. As to conditions: person, i.v. 5 mg every other day, after 60 days. Type of assay: in vivo, human. As to the method:
A person presents with Williams syndrome. […] They begin treatment with i.v. doses of A2-73 at 5 mg every other day.

Where [9] appears, read: 8 weeks of age, 10 and 30 mg/kg p.o. daily, HET mice.
The mark [10] stands for this setting: 12 weeks of age, both doses (10 and 30 mg/kg p.o. daily).

Turning to `CN(C)CC1CCOC1(c1ccccc1)c1ccccc1.Cl` (centres unmarked) [A2-73, tetrahydro-N,N-dimethyl-2,2-diphenyl-3-furanmethanamine hydrochloride], in the assay on Rett syndrome [1], the heart rate variability result is listed as “variability is reduced”. The molecule further gave an average heart rate in the assay on Rett syndrome [1] (49 beats per minute before therapy) of 75 beats per minutes. Besides, on sigma-1 receptors, the “affinity for sigma-1 receptors” value is on record as “low micromolar range”. In assay [2] (setting [9]), the “rotarod speed at fall, treatment effect” value is “No significant treatment effects” and the “rotarod time to fall, treatment effect” value is on record as “No significant treatment effects”. In [2] (setting [10]), the “rotarod speed at fall vs vehicle-treated mutant mice” value is listed as “fell at higher speeds” and the “rotarod time to fall vs vehicle-treated mutant mice” value is on record as “took more time to fall off the rod”. Besides, the “rotarod speed at fall, without outliers” value in assay [2] (12 weeks of age, higher dose (30 mg/kg), outliers removed) is “effect at the higher dose disappeared”. Moreover, the “breathing variability (breaths/minute)” value with Rett syndrome [3] is listed as “significantly reduced”. The “number of daily seizures” value with Rett syndrome [4] is recorded as no more than 3. In assay [5], the “affinity for muscarinic acetylcholine receptors” value was “low micromolar range”. The “total number of gadolinium-enhanced lesions on MRI” value in the assay with multiple sclerosis is “substantially reduced”. The “clasping vs vehicle-treated mutant mice” value in assay [6] is “clasped less”. The “Aβ25-35-induced P-Akt decrease and P-GSK-3β increase” value in [7] (Lahmy et al. 2013) is recorded as “blocked”. Besides, the “hyperphosphorylation of Tau on physiological (AT-8) and pathological (AT-100) epitopes” value in assay [7] (in the dose-range tested) is listed as “attenuated”. Also, the “oxidative stress, caspases induction, cellular loss and learning and memory deficits” value in assay [7] (mice one week after the i.v. injection of oligomeric Aβ25-35 (Villard et al. 2011)) is on record as “attenuating”. The “Aβ25-35-induced endogenous Aβ1-42 seeding” value in assay [7] (mouse, in vivo) is listed as “decreasing”. In the assay on Rett syndrome [8], the instances of choking entry was “reduced” and the weight gain is on record as 10%. In addition, the weight gain in the assay with Williams syndrome is reported as 10%.
